The target of assay [1] is OachGOBP1. As to the kind of experiment: Fluorescence competitive binding assay (1-NPN displacement), OachGOBP1. As to conditions: 2 µM protein and 2 µM 1-NPN in 50 mM Tris HCl; for Ki: Ki = [IC50]/(1 + [1-NPN]/K1-NPN), read-out: GOBP1 Ki; for IC50: competitive ligand replacing 50% 1-NPN, read-out: GOBP1 IC50. Further details: species or system Orthaga achatina. Here is the method:
(§1) A fluorescence competition binding assay was used to test the binding properties of GOBPs to 22 plant volatiles of camphor [22, 23] and 4 sex pheromones of O. achatina. The fluorescence competitive binding assay was conducted on an F-7000 fluorescence spectrophotometer with a 1 cm light path quartz cuvette and 10 nm slits for excitation and emission. The excitation wavelength was 337 nm, and the emission spectrum was recorded between 380 and 460 nm. Firstly, the binding characteristics of 1-NPN to protein were detected. We dissolved 2 µM protein in 50 mM Tris HCl (pH = 7.4), then gradually added 1 mM 1-NPN to make its concentration reach 2, 4, 6, 8, 10, 12, 14, 16 and 20 µM, recorded the fluorescence value, and then calculated the binding constant between 1-NPN and the recombinant protein using the Scatchard equation.
When studying the binding constant between odorant and recombinant protein, 1-NPN was used as a fluorescence reporter. We dissolved 2 µM protein and 2 µM 1-NPN in 50 mM Tris HCl, and then gradually added the ligand. […] In order to determine the binding concentration of protein, the free radical concentration was plotted with the fluorescence intensity of the maximum emission spectrum. It was assumed that the protein activity was 100% and the binding ratio of protein to ligand was 1:1 in the saturated state. The curve was linearized by the Scatchard method. […] The calculation formula was: Ki = [IC50]/(1 + [1-NPN]/K1-NPN), where [1-NPN] is the concentration of unbound 1-NPN and K1-NPN is the dissociation concentration of protein/1-NPN complex.

In assay [2] the target is T1, OachGOBP2 (Orthaga achatina, UniProt H6UEU3). As to the kind of experiment: Fluorescence competitive binding assay (1-NPN displacement), OachGOBP2. As to conditions: for Ki: Ki = [IC50]/(1 + [1-NPN]/K1-NPN), read-out: GOBP2 Ki; for binding to GOBP2 (in words): fluorescence competitive binding. How it is done: as §1
When studying the binding constant between odorant and recombinant protein, 1-NPN was used as a fluorescence reporter. We dissolved 2 µM protein and 2 µM 1-NPN in 50 mM Tris HCl, and then gradually added the ligand. All the ligands were diluted in methanol (AR, content greater than 99.5%). The concentration of pheromone component was 0.5–10 µM and the concentration of plant volatile was 1–32 µM. In order to determine the binding concentration of protein, the free radical concentration was plotted with the fluorescence intensity of the maximum emission spectrum. It was assumed that the protein activity was 100% and the binding ratio of protein to ligand was 1:1 in the saturated state. The curve was linearized by the Scatchard method. Then, the concentration of competitive binding ligand was calculated according to the IC50 value (the concentration when competitive ligand can replace 50% 1-NPN). The calculation formula was: Ki = [IC50]/(1 + [1-NPN]/K1-NPN), where [1-NPN] is the concentration of unbound 1-NPN and K1-NPN is the dissociation concentration of protein/1-NPN complex.

For assay [3], the target named is OachGOBP1. Description: Binding of fluorescent probe 1-NPN to OachGOBP1 (Scatchard). As to conditions: 2 µM protein in 50 mM Tris HCl pH 7.4, Scatchard; read-out: dissociation constant (K1-NPN) to OachGOBP1. More on the design: species or system Orthaga achatina. Here is the method:
as §1

In assay [4] the target is T1, OachGOBP2. As to the kind of experiment: Binding of fluorescent probe 1-NPN to OachGOBP2 (Scatchard). As to conditions: 2 µM protein in 50 mM Tris HCl pH 7.4, Scatchard; read-out: dissociation constant (K1-NPN) to OachGOBP2. Here is the method: as §1
Setting [5] is: 2 µM protein and 2 µM 1-NPN in 50 mM Tris HCl.
[6] abbreviates: competitive ligand replacing 50% 1-NPN, 2 µM protein and 2 µM 1-NPN in 50 mM Tris HCl, read-out: GOBP2 IC50.

Broadly, the Ki is the equilibrium dissociation constant of an inhibitor or competing ligand from its target. As usually defined, the IC50 is the concentration that gives 50% inhibition.

Read-outs that look alike come from different tables or passages of the source.

T1 sequence (H6UEU3 entry or part of it): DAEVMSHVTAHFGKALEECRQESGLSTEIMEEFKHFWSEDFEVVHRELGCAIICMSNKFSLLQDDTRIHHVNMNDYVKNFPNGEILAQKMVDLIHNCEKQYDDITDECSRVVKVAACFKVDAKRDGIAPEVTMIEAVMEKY

Take `CCCCCCO` [1-Hexanol]: the Ki in assay [1] and in assay [2] (setting [5]) was more than 30 µM throughout. Moreover, the IC50 in assay [1] and in assay [2] (setting [6]) was more than 32 µM each time.
For the compound `c1ccc(Nc2cccc3ccccc23)cc1` [1-NPN], the results for the Kd in assay [3] and in assay [4] were 9.95 µM and 4.91 µM, respectively.
With `C=C1C2CCC(C2)C1(C)C` (stereo not shown) [Camphene], the Ki in assay [1] and in assay [2] (setting [5]) was more than 30 µM in each case. Further, the IC50 in assay [1] and in assay [2] (setting [6]) was more than 32 µM each time. Further, the “binding to GOBP2 (in words)” value in assay [2] was “did not bind”.
On to `CC12CCC(CC1=O)C2(C)C` (stereo not shown) [Camphor], for which the Ki is more than 30 µM in assay [1] and 17.5 µM in assay [2] (setting [5]). Moreover, the IC50 is more than 32 µM in assay [1] and 20.7 µM in assay [2] (setting [6]).
With `O=C/C=C/c1ccccc1` [Cinnamaldehyde], in assay [1], the Ki is more than 30 µM. Further, the IC50 in assay [1] and in assay [2] was more than 32 µM each time.
For the compound `CCC/C=C/C=O` [E2-Hexenal], the Ki in assay [1] and in assay [2] (setting [5]) was more than 30 µM in each case. The IC50 in assay [1] and in assay [2] (setting [6]) was more than 32 µM each time.
With `CC12CCC(CC1)C(C)(C)O2` [Eucalyptol], the Ki in assay [1] and in assay [2] (setting [5]) was more than 30 µM throughout. For the same compound, the IC50 in assay [1] and in assay [2] (setting [6]) was more than 32 µM throughout.
Regarding `CC(C)=CCC/C(C)=C/CC/C(C)=C/CO` [Farnesol], the Ki in assay [1] is 9.49 µM; in assay [2] (setting [5]), 7.33 µM. The IC50 stood at 10.9 µM in assay [1] and 8.68 µM in assay [2] (setting [6]).
`CC(C)=CCC/C(C)=C/CO` [Geraniol]: in assay [1], the Ki was more than 30 µM. Further, the IC50 in assay [1] and in assay [2] was more than 32 µM in each case.
As for `O=CCCCC=O` [Glutaraldehyde], in assay [1], the Ki is more than 30 µM and the IC50 is more than 32 µM. For the same compound, in assay [2], the concentration for half-maximal inhibition (IC50) was more than 32 µM.
With `CCCCCCOC(C)=O` [Hexyl acetate], the Ki in assay [1] and in assay [2] (setting [5]) was more than 30 µM each time. Besides, the IC50 in assay [1] and in assay [2] (setting [6]) was more than 32 µM in each case.
In the case of `C=C(C)[C@H]1CC=C(C)CC1` [Limonene], the Ki in assay [1] and in assay [2] (setting [5]) was more than 30 µM throughout. Besides, the IC50 in assay [1] and in assay [2] (setting [6]) was more than 32 µM each time.
As for `C=CC(C)(O)CCC=C(C)C` (stereo not shown) [Linalool], in assay [1], the Ki is more than 30 µM and the IC50 is more than 32 µM. Moreover, the IC50 in assay [2] was determined as 13.9 µM.
Regarding `C=CC(C)=CCC=C(C)C` [Ocimene], the Ki in assay [1] and in assay [2] (setting [5]) was more than 30 µM each time. Besides, the IC50 in assay [1] and in assay [2] (setting [6]) was more than 32 µM in each case.
For the compound `CC/C=C\C/C=C\C/C=C\C/C=C\C/C=C\CCCCCCC` [Z3, Z6, Z9,Z12,Z15–23: H], the Ki in assay [1] and in assay [2] (setting [5]) was more than 30 µM throughout. Further, the IC50 in assay [1] and in assay [2] (setting [6]) was more than 32 µM each time.
As to `CC/C=C\CCO` [Z3-Hexen-1-ol], the values for the Ki in assay [1] and in assay [2] (setting [5]) were more than 30 µM and 18.2 µM, respectively. Further, the figures for the IC50 in assay [1] and in assay [2] (setting [6]) were more than 32 µM and 21.4 µM, respectively.
On to `CC/C=C\CC=O` [Z3-Hexenal], for which the Ki in assay [1] and in assay [2] (setting [5]) was more than 30 µM each time. Besides, the IC50 in assay [1] and in assay [2] (setting [6]) was more than 32 µM in each case. The “binding to GOBP2 (in words)” value in assay [2] is “did not bind”.
Consider `CC/C=C\CCOC(C)=O` [Z3-Hexenyl acetate], for which the Ki was more than 30 µM in assay [1] and 14.3 µM in assay [2] (setting [5]). Moreover, the IC50 was more than 32 µM in assay [1] and 16.8 µM in assay [2] (setting [6]).
Consider `CCCC/C=C\CCCCCCCCCC=O` [Z11-16: Ald], for which, in assay [1], the Ki was more than 30 µM and the IC50 was more than 32 µM. For the same compound, the IC50 in assay [2] (setting [6]) was more than 32 µM.
Take `CCCC/C=C\CCCCCCCCCCOC(C)=O` [Z11-16: OAc]: the results for the Ki in assay [1] and in assay [2] (setting [5]) were more than 30 µM and 2.84 µM, respectively. Moreover, the IC50 in assay [1] is more than 32 µM; in assay [2] (setting [6]) it was 3.3 µM. The “binding capacity class to OachGOBP2 (sex pheromones)” value in assay [2] (class by Ki, sex pheromones) is “moderate (2 μM < Ki < 5 μM indicates moderate binding affinity)”.
In the case of `CCCC/C=C\CCCCCCCCCCO` [Z11-16: OH], the Ki in assay [1] was 1.57 µM; in assay [2] (setting [5]), 3.3 µM. Moreover, the figures for the IC50 in assay [1] and in assay [2] (setting [6]) were 1.79 µM and 3.86 µM, respectively.
In the same order, the values of `C=C/C(C)=C/C/C=C(\C)CCC=C(C)C` [α-Farnesene] are more than 30 µM, 13.4 µM, more than 32 µM and 15.9 µM.
Regarding `CC(=O)/C=C/C1C(C)=CCCC1(C)C` (stereo not drawn) [α-Ionone], the Ki in assay [1] was more than 30 µM. The IC50 in assay [1] and in assay [2] was more than 32 µM each time.
Turning to `CC1=CC[C@H](C(C)C)C=C1` [α-Phellandrene], in assay [1], the inhibition constant Ki is more than 30 µM and the IC50 is more than 32 µM. Also, the IC50 in assay [2] is 10.2 µM.
As for `C=CC(=C)CC/C=C(\C)CCC=C(C)C` [β-Farnesene], the Ki in assay [1] and in assay [2] (setting [5]) was more than 30 µM in each case. For the same compound, the IC50 in assay [1] and in assay [2] (setting [6]) was more than 32 µM each time.
As to `CC(=O)/C=C/C1=C(C)CCCC1(C)C` [β-Ionone], in assay [1], the Ki was more than 30 µM. The IC50 in assay [1] was more than 32 µM; in assay [2], 17.8 µM.
As for `C=C1CCC2CC1C2(C)C` (stereo not drawn) [β-Pinene], the Ki in assay [1] is more than 30 µM. In addition, the IC50 in assay [1] and in assay [2] was more than 32 µM throughout.

(Values after PMC10051560, “Identification and Functional Characterization of General Odorant Binding Proteins in Orthaga achatina” (Insects, 2023).)
